These results are taken from PMC8125528 (Molecules, 2021).

In one data set the test system is HepaRG cells. The data set is described as follows: MTT antiproliferative assay, HepaRG. It is filed as cell-based. Particulars: for IC50: Homo sapiens, liver HepaRG cells, 72 h, MTT assay, 0.1-100 µM, read-out: Estimated IC50, HepaRG; for Selectivity index, HepaRG: ratio of IC50 in NHDF to IC50 in HepaRG. On the procedure:
(§1) Each experiment was performed in quadruplicate and independently repeated.

A further data set concerns MCF-7 cells. The data set is described as follows: MTT antiproliferative assay, MCF-7. Type of data set: cell-based. The note with it: for IC50: Homo sapiens, MCF7, breast MCF-7 cells, 72 h, MTT assay, 0.1-100 µM, read-out: Estimated IC50, MCF-7; for Selectivity index, MCF-7: ratio of IC50 in NHDF to IC50 in MCF-7. On the procedure: as §1
A further data set concerns Caco-2 cells. Nature of the data set: cells. Particulars: Homo sapiens, Caco-2, 72 h, read-out: Estimated IC50, Caco-2. On the procedure:
(§2) The antiproliferative effect of compounds was evaluated by the 3-(4,5-dimethylthiazol-2-yl)-2,5-diphenyltetrazolium bromide (MTT; Sigma-Aldrich, St Louis, MO, USA) assay in MCF-7, T47-D, LNCaP, HepaRG, Caco-2 and NHDF cells. After reaching near confluence, cells were trypsinized and counted with a hemocytometer by means of the trypan-blue exclusion of dead cells. Then, 100 µL of cell suspension (2 × 10^4 cells/mL) was seeded in 96-well culture plates and left to adhere and growth during 48 h. […] Afterward, MTT containing medium was removed and formazan crystals were dissolved in DMSO. Absorbance was measured at 570 nm using a microplate reader Bio-rad Xmark spectrophotometer. After background subtraction, cell proliferation values were expressed as percentage relatively to the absorbance determined in negative control cells. Untreated cells were used as the negative control and the clinical drug 5-fluorouracil (5-FU) was used as positive control. Each experiment was performed in quadruplicate and independently repeated.
(§3) Data were expressed as mean ± standard deviation (SD). t-Student test (two groups) and one-way ANOVA (three groups) were used followed by Bonferroni post hoc tests to determine statistically significant differences among the means.

In data set [1] the test system is normal human dermal fibroblasts (NHDF). The data set is described as follows: MTT antiproliferative assay, NHDF. It is filed as cell-based. The note with it: normal fibroblast NHDF cells, 72 h, 0.1-100 µM, read-out: Estimated IC50, NHDF. On the procedure:
as §1

A further data set concerns T47-D cells. Nature of the data set: MTT antiproliferative assay, T47-D. Particulars: for IC50: Homo sapiens, T47D, breast T47-D cells, 72 h, MTT assay, 0.1-100 µM, read-out: Estimated IC50, T47-D; for Selectivity index, T47-D: ratio of IC50 in NHDF to IC50 in T47-D. Type of data set: cell-based. On the procedure:
as §1

Data set [2] relates to LNCaP cells. Nature of the data set: Cell cycle distribution of LNCaP cells by flow cytometry. Particulars: 50 µM, 24 h. Type of data set: cell-based. On the procedure: After 24 h of treatment with compound 11 at 50 µM (6-well plates, 5 × 10^4 cells/mL), LNCaP cells were collected and washed with PBS and resuspended in 450 µL of a cold solution of 0.5% bovine serum albumin (BSA; Amresco, Solon, OH, USA) and 1 mM EDTA in PBS, followed by fixation with 70% EtOH and kept at −20 °C. Afterward, fixed cells were washed twice with PBS and resuspended in a solution of PI (50 µg/mL) prepared in 0.5% BSA and 1 mM EDTA in PBS and then incubated with Ribonuclease A from bovine pancreas at a final concentration of 0.5 µg/µL (solution in 50% glycerol, 10 mM Tris-HCl, pH 8; Sigma Aldrich, St Louis, MO, USA) for 15 min in the dark. For comparison, untreated cells were used as negative control and cells treated with 5-FU at 50 µM were used as positive control. Each experiment was performed in duplicate and independently repeated. A minimum of 10,000 events was acquired using BD Accuri Software and analysis was performed by Modfit software (Becton Dickinson, San Jose, CA, USA).
Background: Flow cytometry measures light scatter and fluorescence of single cells or particles in a stream.

The test system of data set [3] is LNCaP cells. Nature of the data set: MTT antiproliferative assay, LNCaP. It is filed as cell-based. Particulars: for IC50: Homo sapiens, prostate LNCaP cells, MTT assay, 0.1-100 µM, read-out: Estimated IC50, LNCaP; for Selectivity index, LNCaP: ratio of IC50 in NHDF to IC50 in LNCaP. On the procedure: as §1
Data set [4] relates to LNCaP cells. The data set is described as follows: LNCaP cell viability by flow cytometry after propidium iodide staining. Type of data set: cell-based. Particulars: 50 µM, 24 h, PI flow cytometry. On the procedure: The analysis of LNCaP cells viability was performed by flow cytometry after staining with propidium iodide (PI) (solution of PI 1 mg/mL in 0.1% of sodium azide and water; Sigma Aldrich, St Louis, MO, USA). Briefly, 3 mL of cells suspension were seeded in 6-well plates (5 × 10^4 cells/mL) in complete culture medium. After 48 h they were treated with 50 µM of compound 11. Untreated cells were used as negative control and 5-FU (50 µM) was used as positive control. Each experiment was performed in duplicate and independently repeated. At the end of 24 h of incubation, the supernatant of each well was collected, cells were harvested by trypsinization and pooled with the supernatants. The resulting cell suspension was kept on ice, pelleted by centrifugation and resuspended in 400 µL of complete medium. Afterward, 395 µL of the cell suspension was transferred to a FACS tube and 5 µL of PI and 0.5 µL of ethylenediamine tetraacetic acid (EDTA, 0.123 M) were added. A minimum of 20,000 events was acquired using a BD Accuri C6 (San Jose, CA, USA) flow cytometer in the channels forward scatter (FSC), side scatter (SSC) and fluorescence channel-3 (FL3, for PI). Acquisition and analysis were performed with BD Accuri Software. […]

Another data set can be described thus: in vitro. The note with it: human, Caco-2. On the procedure:
as §2, §3

Data set [5] concerns MCF-7, T47D, LNCaP, HepaRG, Caco-2 and NHDF cell lines. Nature of the data set: MTT screening at 30 µM in six cell lines. Type of data set: cell-based. The note with it: 72 h. On the procedure: as §1
Data set [6] has as its system estrogen-sensitive breast cancer T47-D cells (ER+). Also on record: method as in doi:10.5802/crchim.17. The note with it: previous study; cited from earlier work.
The next data set has as its system HepaRG cell cycle. Also on record: method as in doi:10.5802/crchim.17. Particulars: HepaRG cells; cited from earlier work.
For data set [7], the system named is estrogen-sensitive breast cancer T47-D cells (ER+). The data set is described as follows: E-screening (estrogenicity) assay in T47-D cells. Type of data set: cell-based. The note with it: 0.001 and 0.01 µM, vs. negative control, MTT readout. On the procedure:
After overnight incubation, the medium was replaced every 3 days with fresh phenol red free RPMI 1640 medium supplemented with 5% of dextran-coated charcoal-treated fetal calf serum (DCC-FCS) and containing compound 11 (0.1, 0.01 and 0.001 µM). […] Each experiment was performed in quadruplicate and independently repeated.

For data set [8], the system named is LNCaP cells. The data set is described as follows: Fluorescence microscopy of LNCaP cells after Hoechst 33258 DNA staining. It is filed as cell-based. Particulars: 50 µM, 24 h. On the procedure:
Near-confluent LNCaP cells were seeded in a 6-well plate (5 × 10^4 cells/mL). After adherence and incubation for 24h with compound 11 (50 µM), the dye Hoechst 33,258 was added to the culture medium to achieve a final concentration of 1µg/mL. The cells were incubated for 15 min at 37 °C and were then photographed by means of a Nikon Eclipse microscope equipped with a fluorescence attachment containing the appropriate optical blocks and a QCapture CCD camera.

Another data set deals with 17β-HSD1. Particulars: at 10 μM; cited from earlier work.
Another data set relates to uterine growth. Also on record: method as in PMID 10447965. Particulars: ovariectomized rats; cited from earlier work.

The structures appear in SMILES notation. Read-outs that look alike come from different tables or passages of the source.

Consider `C[C@]12CC[C@@H]3c4ccc(O)cc4CC[C@H]3[C@@H]1CCC2=O` [Compound 1, estrone, reference compound], for which the IC50 in the data set on HepaRG cells was 29.5 µM; in the data set on MCF-7 cells it was 41.9 µM; in the data set on Caco-2 cells, 42.7 µM; in data set [1], 61.8 µM.

For `C[C@]12CC[C@@H]3c4ccc(O)cc4CC[C@H]3[C@@H]1CCC2=NO` [Compound 2, 17-hydroxyiminoestra-1,3,5(10)-trien-3-ol], in the data set with HepaRG cells, the IC50 was 16.9 µM and the “Selectivity index, HepaRG” value worked out at 2.59. Moreover, in the data set with MCF-7 cells, the IC50 is 26.7 µM and the “Selectivity index, MCF-7” value is 1.65. Also, in data set [1], the IC50 was 43.9 µM. Moreover, in the data set with T47-D cells, the IC50 was 29.3 µM and the “Selectivity index, T47-D” value is 1.50.

With `C[C@]12CC[C@@H]3c4cc([N+](=O)[O-])c(O)cc4CC[C@H]3[C@@H]1CCC2=NO` [Compound 5, 17-hydroxyimino-2-nitroestra-1,3,5(10)-trien-3-ol], the IC50 was 12.3 µM in the data set with HepaRG cells, 16.8 µM with MCF-7 cells and 18.5 µM in the data set on Caco-2 cells.

On to `O=c1[nH]cc(F)c(=O)[nH]1` [Compound 5-FU, 5-fluorouracil, reference compound], for which the “Effect on cell cycle distribution” value in the data set on LNCaP cells [2] was “not able to pass through to the S and G2/M phases”. Moreover, the IC50 with LNCaP cells [3] (72 h) was 7.79 µM; in the data set on HepaRG cells, 1.78 µM; in the data set with Caco-2 cells it was 1.31 µM; in data set [1], 3.61 µM; with T47-D cells, 0.54 µM. In addition, the “Selectivity index, LNCaP” value in the data set with LNCaP cells [3] is 0.46. For the same compound, in the data set on HepaRG cells, the “Selectivity index, HepaRG” value turned out to be 2.03. The “Reduction in cell viability” value with LNCaP cells [4] turned out to be 12%. The “Selectivity index, MCF-7” value in the data set with MCF-7 cells is 2.11. Moreover, the selectivity ratio at 72 h in “in vitro” amounted to 2.76. For the same compound, the “Selectivity index, T47-D” value with T47-D cells came out at 6.69.

For the compound `C[C@]12CC[C@@H]3c4cc([N+](=O)[O-])c(O)c([N+](=O)[O-])c4CC[C@H]3[C@@H]1CCC2=NO` [Compound 6, 17-hydroxyimino-2,4-dinitroestra-1,3,5(10)-trien-3-ol], the “Cytotoxic/antiproliferative effect in screening” value in data set [5] is recorded as “low antiproliferative activity”.

Regarding `C[C@]12CC=C3c4ccc(O)cc4CCC3C1CCC2=O` (stereo partly drawn) [Compound 8, Δ^9,11-E1], the “Proliferative/estrogenic effect on T47-D cells” value (shortened to “Proliferative/estrogenic effect”) in [6] is on record as “stimulated the proliferation of T47-D cells”. The “Effect on cell cycle” value in the data set on HepaRG cell cycle is reported as “induced an arrest at G0/G1”.

For the compound `C[C@]12CC[C@@H]3c4cc(I)c(O)c(I)c4CC[C@H]3[C@@H]1CCC2=NO` [Compound 10, 17-hydroxyimino-2,4-diiodooestra-1,3,5(10)-trien-3-ol], the IC50 in the data set on HepaRG cells was 28 µM.

For `C[C@]12CC=C3c4ccc(O)cc4CCC3C1CCC2=NO` (stereo partly drawn) [Compound 11, 17-hydroxyimino-3-hydroxyestra-1,3,5(10),9(11)-tetraen-3-ol], the “Effect on cell cycle distribution” value with LNCaP cells [2] is reported as “induced a G2/M cell cycle arrest”. In addition, the “Proliferative/estrogenic effect” value in data set [7] is recorded as “stimulated the cell proliferation”. The IC50 is 3.59 µM in the data set with LNCaP cells [3] (72 h); 18.4 µM in the data set on HepaRG cells; 25.6 µM in the data set with MCF-7 cells; 24.3 µM in the data set with Caco-2 cells; 30.8 µM in [1]; 43.5 µM with T47-D cells. Moreover, the “Reduction of cell proliferation in screening” value in the data set with LNCaP cells [3] (LNCaP cells, 30 µM, 72 h, MTT) is given as “significant reduction of LNCaP cells proliferation”. The “Selectivity index, LNCaP” value in the data set on LNCaP cells [3] amounted to 8.59. Further, the “Selectivity index, HepaRG” value in the data set with HepaRG cells is 1.68. In addition, in the data set with LNCaP cells [4], the “Reduction in cell viability” value stood at 11%. In addition, the “Selectivity index, MCF-7” value in the data set on MCF-7 cells amounted to 1.20. For the same compound, the “Nuclei morphology (Hoechst 33,258)” value with LNCaP cells [8] is “condensed DNA, typical of prophase, and a small proportion of condensed and fragmented nuclei, typical of apoptosis”. Further, the selectivity ratio at 72 h in “in vitro” turned out to be 1.27. Besides, the “Selectivity index, T47-D” value with T47-D cells is on record as 0.71.

In the case of `C[C@]12CCC3c4cc(Br)c(O)c(Br)c4CCC3C1CCC2=NO` (stereo partly drawn) [Compound 12, 17-hydroxyimino-2,4-dibromo-3-hydroxyestra-1,3,5(10)-trien-3-ol], the IC50 in the data set on HepaRG cells is 21.9 µM.

As for `CC12CCC3c4ccc(O)cc4CCC3C1CC(=NO)C2=O` (stereo not drawn) [Compound 16-oxime], the “% inhibition of 17β-HSD1” value with 17β-HSD1 was 96%.

On to `C[C@]12CC[C@@H]3c4ccc(O)cc4CC[C@H]3[C@@H]1CC[C@@H]2O` [Compound E2, 17β-estradiol, reference compound], for which the “Proliferative/estrogenic effect” value in data set [7] is “stimulated the cell proliferation”.

With `C[C@]12CC[C@@H]3c4ccc(OS(N)(=O)=O)cc4CC[C@H]3[C@@H]1CCC2=O` [EMATE, estrone sulfamate], the “Stimulatory effect on the uterine growth” value in the data set with uterine growth was 0.11 g.

With `C[C@]12CCC3c4ccc(OS(N)(=O)=O)cc4CCC3C1CC/C2=N\O` (stereo partly drawn) [OMATE, estrone oxime sulfamate], the “Stimulatory effect on the uterine growth” value with uterine growth is on record as 0.15 g.

What is called IC50 is the midpoint of a concentration-inhibition curve.
